Measurements published in patent US10010520B2, “Combined application of isothiocyanate compound and anti-cancer medicine” (JC (WUXI) COMPANY, INC., priority 2013, dated 2018).
Values joined by “and” are separate entries in the source; they are usually repeats but may differ in a detail not shown here. Equal values may be shown once. Where a name gives a salt, the structure may show the parent alone. Read-outs that look alike come from different tables or passages of the source. One block for each compound: values may come before it.

Experiments:
[1] = tested on: LNCaP cells; assay: CellTiter-Glo cell viability, drugs alone or in combination, LNCaP cells; format: cell-based, human
Protocol: Cell culture: Androgen-dependent human prostate cancer cells LNCaP, from Shanghai Medicilon Ltd., were placed in a 37° C., 5% CO2 cell incubator, and were cultured in RPMI1640 culture medium with 10% FBS. Androgen-independent human prostate cancer cells DU145, PC-3, from Shanghai Medicilon Ltd., were placed in a 37° C., 5% CO2 cell incubator, and were cultured in F12 culture medium with 10% FBS.
(§1) isothiocyanates or derivatives thereof and DNA-effecting or influencing anticancer drugs, kinase-inhibiting anticancer drugs or hormonal anticancer drugs for endocrine therapy were administered separately or in combination to cancer cells. Cells were seeded into 384-well plates, and cultured for 24 hours in a CO2 incubator. Drugs were dissolved in DMSO and diluted to 9 concentration-gradients in 96 well plates, and then added to corresponding cells in 384-well plates, in which the concentrations of DMSO in 384 well plates were less than 1%. Triplicate wells were set for each concentration. After administration, the cells were cultured in the CO2 incubator for another 72 hrs, and afterwards, cell viability was tested by using CellTiter-Glo® reagent and luminescence detector. And IC50 values of each administration group were calculated.
(§2) CI value was calculated by the following formula: CI=(Am)50/(As)50+(Bm)50/(Bs)50,
(§3) Triplicate wells were set for each co-administration cell well.
(§4) After administration, cells were cultured in the CO2 incubator for another 72 hrs, and afterwards, cell viability was tested by using CellTiter-Glo® reagent and luminescence detector. Curves were plotted according to concentrations or logarithm concentrations of drug A vs cell inhibition rate in the corresponding cell well, and IC50, i.e. (Am)50 was calculated.
(§5) 9 concentration gradients of drug A were set (A1, A2, A3, A4, A5, A6, A7, A8, A9), and administrated alone to the corresponding cells in the 384 well plate, and triplicate wells were set for each administration concentration. After administration, the cells were cultured in the CO2 incubator for another 72 hrs, and afterwards, cell viability was tested by using CellTiter-Glo® reagent and luminescence detector. Curves were plotted according to concentration or logarithm concentration of drug A vs the cell inhibition rate in the corresponding cell well, and IC50, i.e. (As)50 was calculated.
(§6) After administration, the cells were cultured in the CO2 incubator for another 72 hrs, and afterwards, cell viability was tested by using CellTiter-Glo® reagent and luminescence detector.

[2] = tested on: pancreatic cancer cells PANC-1; assay: CellTiter-Glo cell viability, drugs alone or in combination, PANC-1 cells; format: cell-based, human
Protocol: as §1, §2, §3, §4, §5, §6

[3] = tested on: OVCAR-3 cells; assay: CellTiter-Glo cell viability, drugs alone or in combination, OVCAR-3 cells
[4] = tested on: U251 cells; assay: CellTiter-Glo cell viability, drugs alone or in combination, U251 cells
[5] = tested on: Human breast cancer MDA-MB-231 cells; assay: CellTiter-Glo cell viability, drugs alone or in combination, MDA-MB-231 cells; details: Homo sapiens, MDA-MB-231, 72 h
[6] = tested on: human kidney cancer cells 786-O; assay: CellTiter-Glo cell viability, drugs alone or in combination, 786-O cells; details: 786-0, 72 h
[7] = tested on: Jurkat E6-1 cells; assay: CellTiter-Glo cell viability, drugs alone or in combination, Jurkat E6-1 cells; format: cell-based, human; details: Homo sapiens
Protocol: as §1, §2, §3, §4, §5, §6

[8] = tested on: Saos-2 cells; assay: CellTiter-Glo cell viability, drugs alone or in combination, Saos-2 cells; format: cell-based, human; details: Homo sapiens, SAOS-2, 72 h
Protocol: as §1, §2, §3, §4, §5, §6

[9] = tested on: human leukemia HL-60 cells; assay: CellTiter-Glo cell viability, drugs alone or in combination, HL-60 cells; format: cell-based
Protocol: as §1, §2, §3, §4, §5, §6

[10] = tested on: HeLa cells; assay: CellTiter-Glo cell viability, drugs alone or in combination, HeLa cells; format: cell-based, human; details: 72 hrs, read-out: (Bs)50, IC50 of drug B when used alone
Protocol: as §1, §2, §3, §4, §5, §6

[11] = Homo sapiens, LNCaP, 72 h, LNCaP cells, 72 hrs, read-out: (As)50, IC50 of drug A when used alone
[12] = Homo sapiens, PANC-1 cells, 72 hrs, read-out: (As)50, IC50 of drug A when used alone
[13] = Homo sapiens, OVCAR-3, 72 h, read-out: (As)50, IC50 of drug A when used alone
[14] = PANC-1 cells, 72 hrs, read-out: (As)50, IC50 of drug A when used alone
[15] = Homo sapiens, U-251, 72 h, read-out: (Bs)50, IC50 of drug B when used alone, U251 cells, 72 hrs
[16] = read-out: (Bs)50, IC50 of drug B when used alone, 786-O cells, 72 hrs
[17] = LNCaP cells, 72 hrs, read-out: (As)50, IC50 of drug A when used alone
[18] = read-out: (As)50, IC50 of drug A when used alone
[19] = 72 hrs, read-out: (Bs)50, IC50 of drug B when used alone
[20] = Homo sapiens, HL-60, 72 h, read-out: (Bs)50, IC50 of drug B when used alone

Compound: S=C=NCCCc1ccccc1 [3-Phenylpropyl isothiocyanate, 3-phenyl propyl isothiocyanate]
IC50 [1, 11]: 24.5 µM

Compound: S=C=NCCCCc1ccccc1 [4-Phenbutyl isothiocyanate, 4-phenylbutyl isothiocyanate]
IC50 [2, 12]: 26.9 µM
IC50 [1, 11]: 17.5 µM

Compound: S=C=NCc1ccc(Cl)cc1 [4-chloro-benzyl isothiocyanate]
IC50 ([2]; Homo sapiens, PANC-1, 72 h, read-out: (As)50, IC50 of drug A when used alone): 34 µM
IC50 ([1]; Homo sapiens, LNCaP, 72 h, read-out: (As)50, IC50 of drug A when used alone): 17.3 µM
IC50 [3, 13]: 18.2 µM

Compound: COc1ccc(CN=C=S)cc1 [4-methoxy-benzyl isothiocyanate]
IC50 [2, 12]: 11.3 µM

Compound: S=C=NCCCCCCc1ccccc1 [6-Phenhexyl isothiocyanate, 6-phenyl-hexyl isothiocyanate]
IC50 [2, 12]: 30.9 µM
IC50 [1, 11]: 18.8 µM

Compound: CC(N=C=S)c1ccccc1 [L-ethyl phenyl isothiocyanate]
IC50 [2, 14]: 24 µM
IC50 ([3]; read-out: (As)50, IC50 of drug A when used alone, OVCAR-3 cells, 72 hrs): 43.6 µM

Compound: O=NN(CCCl)C(=O)NC1CCCCC1 [Lomustine]
IC50 [4, 15]: 65.4 µM
IC50 ([4]; read-out: (Bs)50, IC50 of drug B when used alone, U251 cells, 72 hrs): 115 µM

IC50 ([5]; read-out: (Bs)50, IC50 of drug B when used alone, MDA-MB-231 cells, 72 hrs): 0.0199 µM
Compound: CC(=O)O[C@H]1C(=O)[C@@]2(C)[C@H]([C@H](OC(=O)c3ccccc3)[C@]3(O)C[C@H](OC(=O)[C@H](O)[C@@H](NC(=O)c4ccccc4)c4ccccc4)C(C)=C1C3(C)C)[C@]1(OC(C)=O)CO[C@@H]1C[C@@H]2O [Paclitaxel, paclitaxel, reference compound]

IC50 [6, 16]: 199 µM
Compound: Cc1ccc(Nc2nccc(N(C)c3ccc4c(C)n(C)nc4c3)n2)cc1S(N)(=O)=O [Pazopanib, pazopanib, reference compound]

Compound: S=C=Nc1ccccc1 [Phenyl isothiocyanate, phenyl isothiocyanate]
IC50 [2, 12]: 77.2 µM
IC50 [1, 11]: 43.6 µM

Compound: S=C=NCCCc1ccccc1 [Phenylpropyl isothiocyanate, phenylpropyl isothiocyanate]
IC50 [2, 12]: 35.1 µM
IC50 [1, 17]: 22.9 µM

IC50 ([7]; Jurkat E6.1, 72 h, Jurkat E6-1 cells, 72 hrs, read-out: (Bs)50, IC50 of drug B when used alone): 0.0017 µM
Compound: C#CCC(Cc1cnc2nc(N)nc(N)c2n1)c1ccc(C(=O)N[C@@H](CCC(=O)O)C(=O)O)cc1 (stereo partly shown) [Pralatrexate, reference compound]

Compound: C/C=C1\NC(=O)[C@H]2CSSCC/C=C/[C@H](CC(=O)N[C@H](C(C)C)C(=O)N2)OC(=O)[C@H](C(C)C)NC1=O [Romidepsin, romidepsin, reference compound]
IC50 ([7]; Jurkat E6-1 cells, 72 hrs, read-out: (Bs)50, IC50 of drug B when used alone): 0.00201 µM

IC50 [6, 16]: 6.99 µM
Compound: CNC(=O)c1cc(Oc2ccc(NC(=O)Nc3ccc(Cl)c(C(F)(F)F)c3)cc2)ccn1 [Sorafenib, sorafenib, reference compound]

Compound: C=CCN=C=S [allyl isothiocyanate]
IC50 [2, 12]: 116 µM

Compound: Cn1c(CCCC(=O)O)nc2cc(N(CCCl)CCCl)ccc21 [bendamustine, Bendamustine, reference compound]
IC50 ([7]; Jurkat E6.1, 72 h, read-out: (Bs)50, IC50 of drug B when used alone): > 100 µM

Compound: CC(C)C[C@H](NC(=O)[C@H](Cc1ccccc1)NC(=O)c1cnccn1)B(O)O [bortezomib, reference compound]
IC50 ([8]; Saos-2 cells, 72 hrs, read-out: (Bs)50, IC50 of drug B when used alone): 0.807 µM

Compound: N.N.O=C([O-])C1(C(=O)[O-])CCC1.[Pt+2] [carboplatin, Carboplatin]
IC50 ([3]; read-out: (Bs)50, IC50 of drug B when used alone, OVCAR-3 cells, 72 hrs): 58.9 µM and 38.7 µM

Compound: S=C=NC1CCCCC1 [cyclohexyl isothiocyanate]
IC50 ([7]; Jurkat E6-1 cells, 72 hrs, read-out: (As)50, IC50 of drug A when used alone): 42.1 µM
IC50 [8, 18]: 66 µM
IC50 ([9]; Homo sapiens, HL-60, 72 h, read-out: (As)50, IC50 of drug A when used alone): 52.7 µM
IC50 [2, 12]: 193 µM
IC50 [1, 11]: 54 µM
IC50 ([4]; Homo sapiens, U-251, 72 h, read-out: (As)50, IC50 of drug A when used alone): 71.1 µM
IC50 [6, 18]: 107 µM
IC50 [3, 13]: 36.5 µM
IC50 [5, 18]: 37.5 µM

Compound: O=P1(N(CCCl)CCCl)NCCCO1 (stereo not shown) [cyclophosphamide, Cyclophosphamide]
IC50 ([3]; Homo sapiens, OVCAR-3, 72 h, read-out: (Bs)50, IC50 of drug B when used alone): > 100 µM

Compound: COc1cccc2c1C(=O)c1c(O)c3c(c(O)c1C2=O)C[C@@](O)(C(C)=O)C[C@@H]3O[C@H]1C[C@H](N)[C@H](O)[C@H](C)O1 [daunorubicin, Daunorubicin]
IC50 [9, 19]: 0.236 µM

IC50 ([2]; Homo sapiens, PANC-1, 72 h, PANC-1 cells, 72 hrs, read-out: (Bs)50, IC50 of drug B when used alone): > 100 µM
Compound: C#Cc1cccc(Nc2ncnc3cc(OCCOC)c(OCCOC)cc23)c1 [erlotinib, reference compound]

IC50 [4, 15]: 23.7 µM
Compound: CO[C@H]1C[C@@H]2CC[C@@H](C)[C@@](O)(O2)C(=O)C(=O)N2CCCC[C@H]2C(=O)O[C@H]([C@H](C)C[C@@H]2CC[C@@H](OCCO)[C@H](OC)C2)CC(=O)[C@H](C)/C=C(\C)[C@@H](O)[C@@H](OC)C(=O)[C@H](C)C[C@H](C)/C=C/C=C/C=C/1C [everolimus]

Compound: Nc1nc(F)nc2c1ncn2[C@@H]1O[C@H](CO)[C@@H](O)[C@@H]1O [fludarabine, Fludarabine]
IC50 [9, 20]: 1.57 µM

IC50 ([1]; LNCaP cells, 72 hrs, read-out: (Bs)50, IC50 of drug B when used alone): 323 µM
Compound: CCNC(=O)[C@@H]1CCCN1C(=O)[C@H](CCCNC(=N)N)NC(=O)[C@H](CC(C)C)NC(=O)[C@@H](CC(C)C)NC(=O)[C@H](Cc1ccc(O)cc1)NC(=O)[C@H](CO)NC(=O)[C@H](Cc1c[nH]c2ccccc12)NC(=O)[C@H](Cc1c[nH]cn1)NC(=O)[C@@H]1CCC(=O)N1 [leuprorelin, reference compound]

IC50 [9, 20]: 3.9 µM
Compound: Cc1cn(-c2cc(NC(=O)c3ccc(C)c(Nc4nccc(-c5cccnc5)n4)c3)cc(C(F)(F)F)c2)cn1 [nilotinib]

Compound: CC(=O)N[C@@H](CSC(=S)NCCc1ccccc1)C(=O)O [phenethyl isothiocyanate-N-acetylcysteine adduct]
IC50 [2, 14]: 28.6 µM
IC50 [1, 17]: 16.4 µM

IC50 ([2]; Homo sapiens, PANC-1, 72 h, PANC-1 cells, 72 hrs, read-out: (As)50, IC50 of drug A when used alone): 14.3 µM
IC50 [1, 11]: 15.3 µM
Compound: C[S+]([O-])CCCCN=C=S (stereo not shown) [sulforaphane, 1-isothiocyanate-4-methanesulfonyl butane]

IC50 ([3]; Homo sapiens, OVCAR-3, 72 h, read-out: (Bs)50, IC50 of drug B when used alone, OVCAR-3 cells, 72 hrs): 0.0774 µM
Compound: CC[C@@]1(O)C(=O)OCc2c1cc1n(c2=O)Cc2cc3c(CN(C)C)c(O)ccc3nc2-1 [topotecan, Topotecan]

Compound: S=C=NC(c1ccccc1)(c1ccccc1)c1ccccc1 [trityl isothiocyanate]
IC50 [2, 12]: > 50 µM
IC50 [1, 11]: 238 µM

IC50 [9, 19]: 0.0126 µM
Compound: CC[C@]1(O)C[C@H]2CN(CCc3c([nH]c4ccccc34)[C@@](C(=O)OC)(c3cc4c(cc3OC)N(C=O)[C@H]3[C@@](O)(C(=O)OC)[C@H](OC(C)=O)[C@]5(CC)C=CCN6CC[C@]43[C@@H]65)C2)C1 [vincristine sulfate]

Compound: Bleomycin [reference compound]
IC50 [10]: 24.5 µM

Compound: arsenic trioxide
IC50 [9, 19]: 2.75 µM
